Results published in publication PMC5732813, “Novel piplartine-containing ruthenium complexes: synthesis, cell growth inhibition, apoptosis induction and ROS production on HCT116 cells” (Oncotarget, 2017).
Values joined by “and” are separate entries in the source; they are usually repeats but may differ in a detail not shown here. Equal entries are not always repeated.

How the values were obtained:
[1] = system: B16-F10 (murine melanoma); test: Cytotoxic activity, alamar blue assay, B16-F10; format: cell-based; conditions: Mus musculus; B16-F10, 72h of incubation, alamar blue; with 95% confidence interval
From the text: (§1) HCT116 (human colon carcinoma), HepG2 (human hepatocellular carcinoma), HSC-3 (human oral squamous cell carcinoma), SCC-4 (human oral squamous cell carcinoma), SCC-9 (human oral squamous cell carcinoma), HL-60 (human promyelocytic leukemia), K-562 (human chronic myelogenous leukemia), B16-F10 (murine melanoma), MRC-5 (human lung fibroblast), WT SV40 MEF (wild-type immortalized mouse embryonic fibroblast) and BAD KO SV40 MEF (BAD gene knockout immortalized mouse embryonic fibroblast) cell lines were obtained from the American Type Culture Collection (ATCC, Manassas, VA, USA) and cultured in RPMI-1640 medium (Gibco-BRL, Gaithersburg, MD, USA) with 10% fetal bovine serum (Life, Carlsbad, CA, USA), 2 mM L-glutamine (Vetec Química Fina, Duque de Caxias, RJ, Brazil) and 50 μg/mL gentamycin (Life, Carlsbad, CA, USA). Adherent cells were collected by treatment with 0.25% trypsin EDTA solution (Gibco-BRL, Gaithersburg, MD, USA). All cell lines were cultured in flasks at 37°C in 5% CO2 and sub-cultured every 3-4 days to maintain exponential growth.
(§2) Cell viability was quantified using the alamar blue assay, according to Ahmed et al.. Cells were inserted in 96-well plates for all experiments (7 x 10^4 cells/mL for adherent cells or 3 x 10^5 cells/mL for suspended cells in 100 μL of medium). […] Negative controls received the vehicle that was used for diluting the compounds tested.

[2] = system: cancer multicellular spheroids formed from HCT116 cells; test: 3D multicellular spheroids culture, alamar blue assay; format: cell-based, human; conditions: Homo sapiens, HCT-116; 3D spheroids of HCT116, 72 h treatment, alamar blue; read-out: IC50
Experimental: as §2
HCT116 cells were cultivated in 3D multicellular spheroids. Briefly, 100 μL of a solution of cells (0.5 x 10^6 cells/mL) were inserted in 96-well plate with a cell-repellent surface (Greiner Bio-One, Kremsmünster, Austria) and cultured in RPMI 1640 medium with 10% fetal bovine serum, 2 mM glutamine, 3% matrigel (BD Biosciences, San Jose, CA, EUA) and 50 μg/mL gentamycin at 37°C with 5% CO2. […] Negative control received the vehicle that was used for diluting the compounds tested. In the end of the experiment, morphological changes were examined by light microscopy (Olympus BX41, Tokyo, Japan) using Image-Pro software (Media Cybernetics, Inc. Silver Spring, USA) and the cell viability was determined by alamar blue assay as described above.

[3] = system: WT SV40 MEF (wild-type immortalized mouse embryonic fibroblast); test: Cytotoxic activity, alamar blue assay, WT SV40 MEF; format: cell-based; conditions: Mus musculus, Fibroblast; WT SV40 MEF, 72 h incubation, alamar blue; read-out: IC50
From the text: as §1, §2

HCT116 cells = test: Gene expression analysis by qPCR array (TaqMan Array Human Molecular Mechanisms of Cancer); format: cell-based; conditions: HCT116, 12 h, DOX 1 μM, PL 10 μM, 1 2.5 μM, 2 5 μM, negative control RQ = 1.0
Experimental: HCT116 cells were plated in bottles tissue culture (7x10^4 cells/mL). After 12h of incubation with the complexes, total RNA was isolated from the cells using the RNeasy Plus mini kit (Qiagen, Hilden, Germany) according to the manufacturer’s instructions. The RNA was evaluated by fluorimetry (QuBit™, Life Technologies, Camarillo, CA, EUA). RNA reverse transcription was performed using Superscript VILO™ (Invitrogen Corporation, Waltham, MA, USA). A 96-well plate TaqMan® Array Human Molecular Mechanisms of Cancer (ID 4418806, Applied Biosystems™, Foster City, CA, EUA) was used for the gene expression study by qPCR. The reactions were conducted in the ABI ViiA7 (Applied Biosystems™, Foster City, CA, EUA). The cycle conditions comprised 2 min at 50 °C, 20 s at 95 °C, then 40 cycles of 3 s at 95 °C and 30 s at 60 °C. […] The GAPDH, 18S and HPRT1 genes were used for normalization. All experiments were performed in DNase/RNase free conditions.

SMILES: COc1cccc2c1C(=O)c1c(O)c3c(c(O)c1C2=O)C[C@@](O)(C(=O)CO)C[C@@H]3O[C@H]1C[C@H](N)[C@H](O)[C@H](C)O1 [Doxorubicin]
- IC50 [1]: 0.02 µM
- IC50 [2]: 6.3 µM
- IC50 [3]: 0.04 µM
- RQ ABL1 (HCT116 cells): 0.912
- RQ AKT1 (HCT116 cells): 1.840
- RQ AKT2 (HCT116 cells): 3.877
- RQ APC (HCT116 cells): 0.908
- RQ BAX (HCT116 cells): 3.274
- RQ BCAR1 (HCT116 cells): 1.809
- RQ BCL2L1 (HCT116 cells): 2.391
- RQ BCL2L11 (HCT116 cells): 1.152
- RQ BID (HCT116 cells): 1.757
- RQ BRAF (HCT116 cells): 0.513
- RQ CASP9 (HCT116 cells): 0.530
- RQ CCND3 (HCT116 cells): 1.438
- RQ CCNE1 (HCT116 cells): 0.894
- RQ CDC42 (HCT116 cells): 1.271
- RQ CDK2 (HCT116 cells): 1.257
- RQ CDK4 (HCT116 cells): 0.983
- RQ CDKN1A (HCT116 cells): 2.853
- RQ CDKN1B (HCT116 cells): 0.766
- RQ CRK (HCT116 cells): 0.867
- RQ CTNNB1 (HCT116 cells): 0.939
- RQ DVL1 (HCT116 cells): 1.252
- RQ E2F1 (HCT116 cells): 1.018
- RQ ELK1 (HCT116 cells): 1.263
- RQ ERBB2 (HCT116 cells): 2.605
- RQ FAS (HCT116 cells): 2.372
- RQ FGF2 (HCT116 cells): 0.625
- RQ GRB2 (HCT116 cells): 0.761
- RQ GSK3B (HCT116 cells): 1.342
- RQ GUSB (HCT116 cells): 5.0
- RQ HRAS (HCT116 cells): 0.691
- RQ ITGB1 (HCT116 cells): 0.489
- RQ ITGB3 (HCT116 cells): 5.579
- RQ KRAS (HCT116 cells): 0.951
- RQ MAPK1 (HCT116 cells): 0.903
- RQ MAPK8 (HCT116 cells): 1.185
- RQ MAPK14 (HCT116 cells): 0.786
- RQ MDM2 (HCT116 cells): 1.479
- RQ MYC (HCT116 cells): 0.876
- RQ NFKB1 (HCT116 cells): 0.784
- RQ NFKB2 (HCT116 cells): 1.250
- RQ NRAS (HCT116 cells): 0.556
- RQ PIK3CA (HCT116 cells): 0.409
- RQ RB1 (HCT116 cells): 0.532
- RQ RELA (HCT116 cells): 0.862
- RQ RHOA (HCT116 cells): 0.900
- RQ SRC (HCT116 cells): 1.383
- RQ TCF3 (HCT116 cells): 1.135
- RQ TGFB1 (HCT116 cells): 0.495
- RQ TGFBR1 (HCT116 cells): 1.216
- RQ VEGFA (HCT116 cells): 0.610
- RQ BCL2 (HCT116 cells; listed as DOX): 3.1 and 3.090
- RQ CCND1 (HCT116 cells; listed as DOX): 1.1 and 1.124
- RQ CDH1 (HCT116 cells; listed as DOX): 7.1 and 7.107
- RQ CDKN2A (HCT116 cells; listed as DOX): 1.8 and 1.793
- RQ CYCS (HCT116 cells; listed as DOX): 1.0 and 0.993
- RQ EGFR (HCT116 cells; listed as DOX): 0.8 and 0.831
- RQ FADD (HCT116 cells; listed as DOX): 1.1 and 1.049
- RQ FN1 (HCT116 cells; listed as DOX): 3.6 and 3.575
- RQ FOS (HCT116 cells; listed as DOX): 11.8 and 11.834
- RQ FYN (HCT116 cells; listed as DOX): 1.3 and 1.248
- RQ FZD1 (HCT116 cells; listed as DOX): 1.0 and 0.994
- RQ IGF1R (HCT116 cells; listed as DOX): 1.4 and 1.389
- RQ ITGA2B (HCT116 cells; listed as DOX): 4.5 and 4.514
- RQ ITGAV (HCT116 cells; listed as DOX): 1.3 and 1.265
- RQ JUN (HCT116 cells; listed as DOX): 4.1 and 4.073
- RQ MAP2K1 (HCT116 cells; listed as DOX): 0.7 and 0.681
- RQ MAP3K5 (HCT116 cells; listed as DOX): 1.0 and 1.006
- RQ MAPK3 (HCT116 cells; listed as DOX): 2.8 and 2.758
- RQ NFKBIA (HCT116 cells; listed as DOX): 2.3 and 2.326
- RQ PIK3R1 (HCT116 cells; listed as DOX): 2.0 and 1.999
- RQ PTEN (HCT116 cells; listed as DOX): 1.8 and 1.750
- RQ PTK2 (HCT116 cells; listed as DOX): 1.2 and 1.182
- RQ PTK2B (HCT116 cells; listed as DOX): 3.4 and 3.368
- RQ RAC1 (HCT116 cells; listed as DOX): 0.9 and 0.845
- RQ RAF1 (HCT116 cells; listed as DOX): 2.0 and 2.027
- RQ SHC1 (HCT116 cells; listed as DOX): 0.6 and 0.640
- RQ SMAD4 (HCT116 cells; listed as DOX): 1.0 and 0.963
- RQ SOS1 (HCT116 cells; listed as DOX): 0.7 and 0.741
- RQ SPP1 (HCT116 cells; listed as DOX): 1.2 and 1.165
- RQ TGFBR2 (HCT116 cells; listed as DOX): 0.9 and 0.914
- RQ TP53 (HCT116 cells; listed as DOX): 3.3 and 3.250
